We go through eleven compounds from patent publication US20240116985A1, “STAPLED PEPTIDES AND METHODS THEREOF” (priority 2020, published 2024).

Where two headings read alike, the source gives them in different places.

In data set [1] the target is T1, beta-catenin/TCF4 engagement (Homo sapiens, UniProt P35222).
T1 construct: expressed in transfected cells; host or cells: HEK293
T1 sequence (P35222 1-781): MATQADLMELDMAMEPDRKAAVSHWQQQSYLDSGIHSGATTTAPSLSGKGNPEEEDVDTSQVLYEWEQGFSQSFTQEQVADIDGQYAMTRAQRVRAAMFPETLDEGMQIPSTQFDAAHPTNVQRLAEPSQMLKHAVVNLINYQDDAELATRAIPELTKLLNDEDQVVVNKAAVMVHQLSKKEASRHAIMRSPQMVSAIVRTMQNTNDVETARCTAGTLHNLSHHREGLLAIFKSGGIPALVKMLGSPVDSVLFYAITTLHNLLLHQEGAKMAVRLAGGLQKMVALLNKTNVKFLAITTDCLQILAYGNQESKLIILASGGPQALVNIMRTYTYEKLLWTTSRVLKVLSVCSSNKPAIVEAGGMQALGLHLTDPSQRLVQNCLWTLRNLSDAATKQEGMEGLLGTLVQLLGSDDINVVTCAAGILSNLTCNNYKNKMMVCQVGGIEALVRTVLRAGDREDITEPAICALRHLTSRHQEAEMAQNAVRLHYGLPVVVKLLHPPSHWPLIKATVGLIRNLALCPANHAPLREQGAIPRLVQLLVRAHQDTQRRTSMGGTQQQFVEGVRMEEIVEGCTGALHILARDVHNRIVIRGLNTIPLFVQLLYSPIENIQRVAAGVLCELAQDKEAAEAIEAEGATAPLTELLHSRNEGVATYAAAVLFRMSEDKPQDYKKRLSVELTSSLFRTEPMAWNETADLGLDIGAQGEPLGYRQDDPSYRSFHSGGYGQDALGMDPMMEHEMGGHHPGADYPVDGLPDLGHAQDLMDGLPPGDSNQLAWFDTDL
In words: Nano-BRET target engagement assay (B-cat-Halo & TCF4-Luc in HEK293 cells). In kind it is cell-based. The conditions noted are these: for IC50: read-out: NanoBRET Abs IC50; for inhibition at 10 µM: HEK293, 10 uM, read-out: NanoBRET % inh @ 10 uM. (In general: BRET reads energy transfer from a luciferase to a nearby fluorophore.)

Data set [2] deals with T2, full-length beta-Catenin (Uniprot ID P35222) (Homo sapiens, UniProt P35222).
T2 construct: 10 nM full-length beta-Catenin (Uniprot ID P35222)
T2 sequence (P35222 1-781): T1 sequence (P35222 1-781)
In words: Fluorescence polarization IC50 (beta-catenin / 5FAM-TCF4 10-53 competition). In kind it is binding. On the technique in general: Fluorescence polarisation rises when a labelled molecule tumbles more slowly, as on binding a larger partner.

The nature of the next data set: CHI Log D procedure. In kind it is physicochemical. The conditions noted are these: for CHI Log D: pH 7.4; for chromatographic logD: pH 7.4, CHI Log D.
[3] abbreviates: fluorescence polarization, beta-catenin, read-out: FP EC50.

Turning to `CC(=O)N1CCC[C@]12CC=CCCCC1(CCCC=CCCCOC(=O)N3CC[C@@](C(=O)N[C@@H](Cc4ccsc4)C(=O)N[C@@H](Cc4csc5ccccc45)C(=O)N[C@@H](Cc4c[nH]cn4)C(N)=O)(C3)NC(=O)[C@H](CC(N)=O)NC(=O)[C@H](Cc3ccccc3)NC(=O)[C@H](C)NC(=O)[C@H](C)NC(=O)[C@H](CN(CC(=O)O)CC(F)(F)F)NC(=O)[C@H](CC(=O)O)NC1=O)NC(=O)[C@H](CC(C)(C)C)NC(=O)[C@H](CC(=O)O)NC2=O` (stereo partly drawn) [I-769, Ac-PL3-Asp-Npg-B5-Asp-TfeGA-Ala-Ala-Phe-Asn-PyrS2-3Thi-BztA-His-NH2], the IC50 in data set [1] (Abs IC50) is 13000 nM; in data set [1] it was 13000 nM; in data set [2] (read-out: beta-Catenin FP IC50), 5 nM. The “CHI Log D” value in “CHI Log D procedure” was determined as 2.307.
For the compound `CC(=O)N1CCC[C@]12CC=CCCCC1(CCCC=CCCCOC(=O)N3CC[C@@](C(=O)N[C@@H](Cc4ccsc4)C(=O)N[C@@H](Cc4csc5ccccc45)C(=O)N[C@@H](Cc4c[nH]cn4)C(N)=O)(C3)NC(=O)[C@H](CC(N)=O)NC(=O)[C@H](Cc3ccccc3)NC(=O)[C@H](C)NC(=O)[C@H](C)NC(=O)[C@H](CN(CC(=O)O)CC(F)(F)F)NC(=O)[C@H](CC(=O)O)NC1=O)NC(=O)[C@H](CC(C)(C)C)NC(=O)[C@H](CC(=O)O)NC2=O` (stereo partly drawn) [I-770, Ac-PL3-Asp-Npg-B5-Asp-TfeGA-Ala-Ala-Phe-Asn-PyrS2-3Thi-BztA-His-NH2], the IC50 in data set [1] (Abs IC50) came out at 13700 nM; in data set [1] it was 13700 nM; in data set [2] (read-out: beta-Catenin FP IC50) it was 5 nM. Also, the “CHI Log D” value in “CHI Log D procedure” was 2.358.
In the case of `CC(=O)N1CCC[C@]12CC=CCCCC1(CCCC=CCCCOC(=O)N3CC[C@@](C(=O)N[C@@H](Cc4ccsc4)C(=O)N[C@@H](Cc4csc5ccccc45)C(=O)N[C@@H](Cc4c[nH]cn4)C(N)=O)(C3)NC(=O)[C@H](CCC(N)=O)NC(=O)[C@H](Cc3ccccc3)NC(=O)[C@H](C)NC(=O)[C@H](C)NC(=O)[C@H](CC(=O)O)NC(=O)[C@H](CC(=O)O)NC1=O)NC(=O)[C@H](CC(C)(C)C)NC(=O)[C@H](CC(=O)O)NC2=O` (stereo partly drawn) [I-771, Ac-PL3-Asp-Npg-B5-Asp-Asp-Ala-Ala-Phe-Gln-PyrS2-3Thi-BztA-His-NH2], the results for the IC50 in data set [1] and in data set [2] (read-out: beta-Catenin FP IC50) were 37300 nM and 5 nM, respectively. Also, in the data set “CHI Log D procedure”, the “CHI Log D” value stood at 2.031.
For `CC(=O)N1CCC[C@]12CC=CCCCC1(CCCC=CCCCOC(=O)N3CC[C@@](C(=O)N[C@@H](Cc4ccsc4)C(=O)N[C@@H](Cc4csc5ccccc45)C(=O)N[C@@H](Cc4c[nH]cn4)C(N)=O)(C3)NC(=O)[C@H](CCC(N)=O)NC(=O)[C@H](Cc3ccccc3)NC(=O)[C@H](C)NC(=O)[C@H](C)NC(=O)[C@H](CC(=O)O)NC(=O)[C@H](CC(=O)O)NC1=O)NC(=O)[C@H](CC(C)(C)C)NC(=O)[C@H](CC(=O)O)NC2=O` (stereo partly drawn) [I-772, Ac-PL3-Asp-Npg-B5-Asp-Asp-Ala-Ala-Phe-Gln-PyrS2-3Thi-BztA-His-NH2], the IC50 in data set [1] was > 20000 nM; in data set [2] (read-out: FP EC50), 7 nM; in data set [2] (read-out: beta-Catenin FP IC50), 7 nM. In the data set “CHI Log D procedure”, the “CHI Log D” value is reported as 2.069.
As usually defined, the chromatographic logD is lipophilicity estimated from chromatographic retention. A lower chromatographic logD goes with lower lipophilicity. As to `CC(=O)N1CCC[C@]12CC=CCCCC1(CCCC=CCCCOC(=O)N3CC[C@@](C(=O)N[C@@H](Cc4ccsc4)C(=O)N[C@@H](Cc4cn(C)c5ccccc45)C(=O)N[C@@H](Cc4c[nH]cn4)C(N)=O)(C3)NC(=O)[C@H](CC(N)=O)NC(=O)[C@H](Cc3ccccc3)NC(=O)[C@H](C)NC(=O)[C@H](C)NC(=O)[C@H](CC(=O)O)NC(=O)[C@H](CC(=O)O)NC1=O)NC(=O)[C@H](CC(C)(C)C)NC(=O)[C@H](CC(=O)O)NC2=O` (stereo partly drawn) [I-799, Ac-PL3-Asp-Npg-B5-Asp-Asp-Ala-Ala-Phe-Asn-PyrS2-3Thi-1MeW-His-NH2], the inhibition at 10 µM in data set [1] was 0.9%. For the same compound, in data set [2] (read-out: beta-Catenin FP IC50), the IC50 is 92 nM. This compound had a chromatographic logD in the data set “CHI Log D procedure” of 2.06.
For `CC(=O)N1CCC[C@]12CC=CCCCC1(CCCC=CCCCOC(=O)N3CC[C@@](C(=O)N[C@@H](Cc4ccsc4)C(=O)N[C@@H](Cc4c[nH]c5ccc(F)cc45)C(=O)N[C@@H](Cc4c[nH]cn4)C(N)=O)(C3)NC(=O)[C@H](CC(N)=O)NC(=O)[C@H](Cc3ccccc3)NC(=O)[C@H](C)NC(=O)[C@H](C)NC(=O)[C@H](CC(=O)O)NC(=O)[C@H](CC(=O)O)NC1=O)NC(=O)[C@H](CC(C)(C)C)NC(=O)[C@H](CC(=O)O)NC2=O` (stereo partly drawn) [I-800, Ac-PL3-Asp-Npg-B5-Asp-Asp-Ala-Ala-Phe-Asn-PyrS2-3Thi-5FW-His-NH2] the same measures were 8.1%, 79 nM and 2.
In the case of `CC(=O)N1CCC[C@]12CC=CCCCC1(CCCC=CCCCCOC(=O)N3CC[C@@](C(=O)N[C@@H](Cc4ccsc4)C(=O)N[C@@H](Cc4csc5ccccc45)C(=O)N[C@@H](CCC(N)=O)C(=O)N[C@@H](C)C(N)=O)(C3)NC(=O)[C@H](CC(N)=O)NC(=O)[C@H](Cc3ccccc3)NC(=O)[C@H](C)NC(=O)[C@H](C)NC(=O)[C@H](CC(=O)O)NC(=O)[C@H](CC(=O)O)NC1=O)NC(=O)[C@H](CC(C)(C)C)NC(=O)[C@H](CC(=O)O)NC2=O` (stereo partly drawn) [I-825, Ac-PL3-Asp-Npg-B5-Asp-Asp-Ala-Ala-Phe-Asn-PyrS3-3Thi-BztA-Gln-Ala-NH2], the IC50 amounted to 27500 nM in data set [1], 15 nM in data set [2] (setting [3]) and 15 nM in data set [2] (read-out: beta-Catenin FP IC50). Moreover, the “CHI Log D” value in the data set “CHI Log D procedure” is 2.028.
Regarding `CC(=O)N1CCC[C@]12CC=CCCCC1(CCCC=CCCCCOC(=O)N3CC[C@@](C(=O)N[C@@H](Cc4ccsc4)C(=O)N[C@@H](Cc4csc5ccccc45)C(=O)N[C@@H](Cc4c[nH]cn4)C(=O)N[C@@H](C)C(N)=O)(C3)NC(=O)[C@H](CC(N)=O)NC(=O)[C@H](Cc3ccccc3)NC(=O)[C@H](C)NC(=O)[C@H](C)NC(=O)[C@H](CC(=O)O)NC(=O)[C@H](CC(=O)O)NC1=O)NC(=O)[C@H](CC(C)(C)C)NC(=O)[C@H](CC(=O)O)NC2=O` (stereo partly drawn) [I-827, Ac-PL3-Asp-Npg-B5-Asp-Asp-Ala-Ala-Phe-Asn-PyrS3-3Thi-BztA-His-Ala-NH2], the IC50 in data set [1] was > 20000 nM; in data set [2] (setting [3]), 13 nM; in data set [2] (read-out: beta-Catenin FP IC50) it was 13 nM. Also, in “CHI Log D procedure”, the “CHI Log D” value stood at 2.1.
For `CC(=O)N1CCC[C@]12CC=CCCCC1(CCCC=CCCCCOC(=O)N3CC[C@@](C(=O)N[C@@H](Cc4ccsc4)C(=O)N[C@@H](Cc4csc5ccccc45)C(=O)N[C@@H](CCC(N)=O)C(=O)N[C@H](C)C(N)=O)(C3)NC(=O)[C@H](CC(N)=O)NC(=O)[C@H](Cc3ccccc3)NC(=O)[C@H](C)NC(=O)[C@H](C)NC(=O)[C@H](CC(=O)O)NC(=O)[C@H](CC(=O)O)NC1=O)NC(=O)[C@H](CC(C)(C)C)NC(=O)[C@H](CC(=O)O)NC2=O` (stereo partly drawn) [I-830, Ac-PL3-Asp-Npg-B5-Asp-Asp-Ala-Ala-Phe-Asn-PyrS3-3Thi-BztA-Gln-dAla-NH2], the IC50 in data set [1] stood at 38500 nM; in data set [2] (setting [3]), 15 nM; in data set [2] (read-out: beta-Catenin FP IC50), 15 nM. Further, the “CHI Log D” value in the data set “CHI Log D procedure” was 2.042.
Take `CC(=O)N1CCC[C@]12CC=CCCCC1(CCCC=CCCCCOC(=O)N3CC[C@@](C(=O)N[C@@H](Cc4ccsc4)C(=O)N[C@@H](Cc4csc5ccccc45)C(=O)N[C@@H](Cc4c[nH]cn4)C(=O)N[C@H](C)C(N)=O)(C3)NC(=O)[C@H](CC(N)=O)NC(=O)[C@H](Cc3ccccc3)NC(=O)[C@H](C)NC(=O)[C@H](C)NC(=O)[C@H](CC(=O)O)NC(=O)[C@H](CC(=O)O)NC1=O)NC(=O)[C@H](CC(C)(C)C)NC(=O)[C@H](CC(=O)O)NC2=O` (stereo partly drawn) [I-832, Ac-PL3-Asp-Npg-B5-Asp-Asp-Ala-Ala-Phe-Asn-PyrS3-3Thi-BztA-His-dAla-NH2]: the IC50 in data set [1] worked out at 39800 nM; in data set [2] (setting [3]), 9 nM; in data set [2] (read-out: beta-Catenin FP IC50), 9 nM. Moreover, the “CHI Log D” value in the data set “CHI Log D procedure” is 2.095.
As to `CC(=O)N1CCC[C@]12CC=CCCCC1(CCCC=CCCCCOC(=O)N3CC[C@@](C(=O)N[C@@H](Cc4ccsc4)C(=O)N[C@@H](Cc4csc5ccccc45)C(=O)N[C@@H](CC(N)=O)C(=O)N[C@H](C)C(N)=O)(C3)NC(=O)[C@H](CC(N)=O)NC(=O)[C@H](Cc3ccccc3)NC(=O)[C@H](C)NC(=O)[C@H](C)NC(=O)[C@H](CC(=O)O)NC(=O)[C@H](CC(=O)O)NC1=O)NC(=O)[C@H](CC(C)(C)C)NC(=O)[C@H](CC(=O)O)NC2=O` (stereo partly drawn) [I-834, Ac-PL3-Asp-Npg-B5-Asp-Asp-Ala-Ala-Phe-Asn-PyrS3-3Thi-BztA-Asn-dAla-NH2], the IC50 came out at 33700 nM in data set [1], 14 nM in data set [2] (setting [3]) and 14 nM in data set [2] (read-out: beta-Catenin FP IC50). The “CHI Log D” value in “CHI Log D procedure” is on record as 2.08.
